{"source": "patent US20220370566A1", "about": "“METHOD AND COMPOSITIONS FOR TREATING DECREASED COGNITIVE ABILITY” (Saint Louis University, priority 2018, published 2022)", "key": {"[1]": {"test": "Metabolic effect of adropin^34-76 administration in mice", "type": "in vivo, mouse", "details": "delivered as two 45 nmol/kg injections", "excerpt": "(§1) Using mice, the Inventors have shown that administration of adropin^34-76, in doses as low as 90 nmol/kg/day, delivered as two 45 nmol/kg injections, can be effective in producing changes in metabolism. Dose as high as 900 nmol/kg/d are well tolerated in mice. While the doses required for a desired clinical effect in humans is expected to vary between patients, the 90 nmol/kg dose administered by subcutaneous, intramuscular, or intravenous injection, either once or twice a day, may represent a preferred treatment protocol. It is anticipated that the treatments would be administered daily, although long-acting formulations involving weekly injections are envisaged. The optimum dose and frequency for a particular subject may be determined by the patient's treating physician, based on the patient's cognitive response. It is anticipated that adropin therapy may or may not improve a subject's cognitive function relative to current baseline, however adropin therapy may result in significant delays in the advancement of the disease. Improvement may manifest as a significant delay or a reduced rate of subsequent cognitive decline."}, "[2]": {"system": "subjects with diet-induced obesity", "details": "Kumar et al. 2008, Gao et al. 2014, 2015; cited from earlier work"}, "[3]": {"system": "male C57BL/6J (B6) mice, aged 18 months", "test": "Novel Object Recognition test, aged mice treated with adropin^34-76", "type": "in vivo, mouse", "experimental": "For the novel object recognition task, mice are habituated to an empty apparatus, a 58×66×11-cm white plastic box, for 5 min a day for 3 consecutive days prior to entry of objects. On the first day of training, mice are placed in the testing apparatus with two identical objects (A and B). 24h later the animal is reintroduced to the arena but this time one of the original objects is removed and a new object (C). Total time spent exploring each of the two objects is recorded. Anxiety will be assessed using open field and elevated plus maze tests. The experimental apparatus consists of a central platform, two open arms and two equal-sized closed arms opposite to each other. The test consisted of placing a mouse in the central platform facing an enclosed arm and allowing it to freely explore the maze for 5 min. The number of entries into the open and closed arms and the time spent in open arms was measure by an observer blind to treatment\n(§2) To examine the effects of endogenous adropin on a subject's cognitive ability, 34 male C57BL/6J (B6) mice, aged 18 months, were treated with exogenous adropin^34-76. Mice were purchased from The Jackson Laboratory (Bar Harbor, Me.). After acclimation for 1 month, mice were separated into two weight matched groups of 15 mice: Group 1 adropin^34-76 treatment group and Group 2 saline vehicle control.\n(§3) The mice were administered a single intraperitoneal injection (volume 100 μl) each morning (0900h) for 4 weeks. Group 1 was administered adropin^34-76 at a dose of 90 nmol/kg/day. Group 2 was administered saline. The peptide was purchased from Neoscientific Inc. Behavioral testing began after 2 weeks of injections. Injections continued though testing until 4 weeks.\nA non-amnesic subject will spend more time exploring the novel object than the familiar one. When adropin treated and vehicle treated mice were subjected to the Novel Object Recognition test, adropin treated mice spent more time exploring the novel object (FIG. 11, Table 1)"}, "[4]": {"test": "Body weight and survival during 4 weeks of adropin^34-76 injections", "type": "in vivo", "details": "group 1 (adropin^34-76, 90 nmol/kg/day ip), 15 mice", "experimental": "as §2, §3"}, "[5]": {"system": "Hippocampal gene expression", "test": "Hippocampal gene expression (cytokines, growth factors) after TBI", "type": "in vivo, mouse", "details": "TBI+Adr vs TBI+veh and Sham", "experimental": "FIG. 18 illustrates Hippocampal gene expression. There are increases in the expression of cytokines (significant for IL16, CCI2, IL17) in the hippocampus of TBI-veh mice versus uninjured (sham) controls TBI also appears to result in changes in expression of growth factors (BDNF, VEGF). In most cases, these changes were attenuated by adropin treatment.\nGene expression was assessed using qRT-PCR as previously described. Hippocampal and cortical tissue samples were dissected from fresh brains and snap frozen brains on dry-ice cold isopentane. Total RNA was extracted using Trizol (Invitrogen, Life Technologies) and treated with a DNAfree kit (Ambion, Life Technologies). […] Quantitative PCR was performed in 96-well plates using Taqman gene expression and QuantStudio 7 Detection Systems (Applied Biosystems, Life Technologies); 36B4 was used as the reference gene.\n(§4) TBI PROCEDURE: Mice were exposed to mild closed-head concussive TBI. […] Adequate anesthesia was determined by the lack of both the corneal reflex and toe pinch reflex. […] Following Isoflurane anesthesia and the weight drop procedure, mouse respiration, heart rate and righting reflex was monitored to ensure recovery. The righting reflex time was recorded for each mouse. […] When the mouse moves from a supine to a prone position, i.e., rights itself, the time will be recorded. […]"}, "plasma cytokine levels": {"system": "plasma cytokine levels", "test": "Plasma cytokine levels after TBI", "type": "in vivo, mouse", "details": "TBI followed by adropin vs TBI followed by saline", "experimental": "FIG. 17 illustrates plasma cytokine levels of mice that were: uninjured, subjected to TBI, and subjected to TBI followed by adropin injections.\nTBI PROCEDURE: Mice were exposed to mild closed-head concussive TBI. Mice were anesthetized with isoflurane 2-4% and placed under a device consisting of a Plexiglas tube (inner diameter 13 mm) placed vertically over the animal's head. Adequate anesthesia was determined by the lack of both the corneal reflex and toe pinch reflex. Each mouse received 90 sec Isoflurane anesthesia in the induction chamber. The injury was induced by dropping a 25-gm acrylic weight from 80 cm height down the Plexiglas tube, striking the skull. This weight was chosen based upon literature using this type of device (Tweedie et al. (2016) PLoS One. 11(6):e0156493; Zohar et al. (2011) Acta Neurobiol Exp. 71:36-45). […] Following Isoflurane anesthesia and the weight drop procedure, mouse respiration, heart rate and righting reflex was monitored to ensure recovery. The righting reflex time was recorded for each mouse. […] When the mouse moves from a supine to a prone position, i.e., rights itself, the time will be recorded. […] One hour following the weight drop injury four reflexes were checked and recorded: the corneal reflex in both eyes, hindleg extension when held by the tail, startle response from a puff of air, and the ability to walk with a normal gate. […]"}, "[6]": {"system": "male C57BL/6J (B6) mice, aged 18 months", "test": "Aversive T-maze acquisition, aged mice treated with adropin^34-76", "type": "in vivo, mouse", "details": "90 nmol/kg/day ip", "experimental": "(§5) Memory retention and acquisition were assessed using an aversive T-maze and novel objective recognition, as previously described (Farr et al., (2016) J Alzheimers Dis.; 54(4):1339-1348). Briefly, the T-maze consists of a black plastic alley with a start box at one end and two goal boxes at the other. An electrifiable floor of stainless steel rods run throughout the maze to deliver a foot-shock using a scrambled grid floor shocker (Model E13-08, Coulbourn Instruments, Whitehall, Pa.). Mice are not permitted to explore the maze prior to training. A block of training trials begins when mice are placed in the start box. The guillotine door is raised and a cue buzzer sounded simultaneously (doorbell type, at 55 dB); 5s later a mild aversive foot-shock is applied with an intensity of 0.35 mA. The arm of the maze entered on the first trial is designated “incorrect” and the mild foot-shock continued until the mouse enters the other goal box, which in all subsequent trials is designated “correct” for each mouse. Mice are trained until they made one active avoidance, with an inter-trial interval of 30-35s. The number of trials to make one active avoidance is the measure of acquisition. Retention is tested 7d later, with training continued until the criterion of making five active avoidances in six consecutive trials is achieved. The number of trials needed to reach this criterion is the measure of retention (Butler et al., (2012) The Journal of clinical endocrinology and metabolism; 97(10):3783-3791; Wong et al., (2014) The Journal of biological chemistry; 289(37):25976-25986).\nas §2, §3\nMice prepared with adropin or placebo in Example 3 were subjected to the Acquisition T-maze test."}, "[7]": {"system": "male C57BL/6J (B6) mice, aged 18 months", "test": "Aversive T-maze retention (retest after 7 days), aged mice treated with adropin^34-76", "type": "in vivo, mouse", "details": "90 nmol/kg/day ip", "experimental": "as §5, §2, §3\n(FIG. 12, Table 3) Mice were retested in the maze after 7 days and Adropin treated mice retained learned memories and complete the maze in lets time."}, "[8]": {"system": "Male C57BL/6J B6 mice subjected to TBI", "test": "T-maze retention after mild closed-head traumatic brain injury (TBI)", "type": "in vivo, mouse", "experimental": "FIG. 16 illustrates the results of T-maze data from adropin treated and adropin transgenic mice after traumatic brain injury. SHAM are mice handled but not subject to injury. Veh are mice treated with 0.9% saline. […] (A) Mice used were males, aged 10-14 weeks, purchased from the Jackson laboratory. (B) “TG” are adropin transgenic mice. “WT” are wild-type littermates. All mice were males aged 9-12 months.\nMemory retention and acquisition were assessed using an aversive T-maze and novel objective recognition, as previously described (Farr et al., (2016) J Alzheimers Dis.; 54(4):1339-1348). Briefly, the T-maze consists of a black plastic alley with a start box at one end and two goal boxes at the other. An electrifiable floor of stainless steel rods run throughout the maze to deliver a foot-shock using a scrambled grid floor shocker (Model E13-08, Coulbourn Instruments, Whitehall, Pa.). Mice are not permitted to explore the maze prior to training. A block of training trials begins when mice are placed in the start box. The guillotine door is raised and a cue buzzer sounded simultaneously (doorbell type, at 55 dB); 5s later a mild aversive foot-shock is applied with an intensity of 0.35 mA. The arm of the maze entered on the first trial is designated “incorrect” and the mild foot-shock continued until the mouse enters the other goal box, which in all subsequent trials is designated “correct” for each mouse. Mice are trained until they made one active avoidance, with an inter-trial interval of 30-35s. The number of trials to make one active avoidance is the measure of acquisition. […]\nas §4"}, "[9]": {"test": "Tolerability of adropin^34-76 in mice", "type": "in vivo, mouse", "excerpt": "as §1"}, "[10]": {"details": "n = 14, SEM in next cell, P <0.0001 vs vehicle"}}, "note": "Values joined by “and” are separate entries in the source; they are usually repeats but may differ in a detail not shown here. Equal values may be shown once.", "data": [{"substance": "adropin^34-76 (CHSRSADVDSLSESSPNSSPGPCPEKAPPPQKPSHEGSYLLQP; Adropin; UniProt Q6UWT2 34-76, looked up, fragment)", "values": [{"measurement": "dose effective in producing changes in metabolism", "setting": "[1]", "result": "≥ 90", "unit": "nmol/kg/day"}, {"measurement": "metabolic changes after intraperitoneal injection, in words", "setting": "[2]", "result": "metabolic changes suggesting improvements in glucose control and reduced risk for type 2 diabetes"}, {"measurement": "Novel Object Recognition, result in words vs vehicle treated mice", "setting": "[3]; 90 nmol/kg/day ip", "result": "improved cognitive performance"}, {"measurement": "Novel Object Recognition, difference between means (Adropin vs. Vehicle)", "setting": "[3]; 90 nmol/kg/day ip, vehicle mean 43.90", "result": 14.99}, {"measurement": "Novel Object Recognition, mean (Adropin)", "setting": "[3]; n = 15, SEM in next cell, P 0.0183 vs vehicle, unpaired t test, 90 nmol/kg/day ip", "result": 58.88}, {"measurement": "Novel Object Recognition test, 24 Hour delay % Novel Object (individual mice)", "setting": "[3]; one value per mouse, 90 nmol/kg/day ip for 4 weeks, testing after 2 weeks", "result": "55.56% and 77.50% and 66.67% and 79.10% and 51.06% and 100.00% and 51.61% and 46.43% and 42.86% and 53.06% and 37.50% and 40.74% and 64.58% and 62.50% and 58.82%"}, {"measurement": "deaths during treatment", "setting": "[4]", "result": "One mouse in group 1 died"}, {"measurement": "TBI-induced changes in hippocampal cytokine and growth factor expression, in words", "setting": "[5]", "result": "these changes are attenuated in most cases"}, {"measurement": "plasma cytokine levels after TBI, in words", "setting": "plasma cytokine levels", "result": "possible reduction in inflammatory responses to TBI"}, {"measurement": "T-maze acquisition, result in words vs placebo treated mice", "setting": "[6]", "result": "performed better"}, {"measurement": "T-maze acquisition, difference between means (Adropin vs. Vehicle)", "setting": "[6]; vehicle mean 10.80", "result": "−3.443"}, {"measurement": "T-maze acquisition, mean (Adropin)", "setting": "[6]; [10]", "result": 7.357}, {"measurement": "T-maze acquisition (individual mice)", "setting": "[6]; one value per mouse, number of trials to make one active avoidance", "result": "7. (5×) and 8. (4×) and 9. (2×) and 6. (3×)"}, {"measurement": "T-maze Retention, difference between means (Adropin vs. Vehicle)", "setting": "[7]; vehicle mean 9.200", "result": "−2.343"}, {"measurement": "T-maze Retention, mean (Adropin)", "setting": "[7]; [10]", "result": 6.857}, {"measurement": "T-maze Retention (individual mice)", "setting": "[7]; one value per mouse, trials to five active avoidances in six consecutive trials, 7 d later", "result": "7. (7×) and 8. and 6. (5×) and 9."}, {"measurement": "T-maze retention, result in words vs vehicle", "setting": "[7]; retested after 7 days", "result": "superior performance"}, {"measurement": "deficits in spatial learning and memory after TBI", "setting": "[8]; 450 nmol/kg iv at 1 h and 450 nmol/kg ip at 24 h post-injury, male B6 mice", "result": "exhibited protection from deficits in spatial learning and memory"}, {"measurement": "T-maze retention after TBI, compared with uninjured vehicle treated controls", "setting": "[8]; TBI+Adro vs SHAM+Veh", "result": "not significantly different"}, {"measurement": "T-maze retention after TBI, compared with TBI followed by saline", "setting": "[8]; TBI+Adro vs TBI+Veh, injections 1 h and 24 h post-injury, ** 99% confidence", "result": "significantly improved"}, {"measurement": "dose well tolerated", "setting": "[9]", "result": "≤ 900", "unit": "nmol/kg/day"}]}]}
